{
  "source": "patent US9113629B2",
  "about": "“4-amino-6-(4-substituted-phenyl)-picolinates and 6-amino-2-(4-substituted-phenyl)-pyrimidine-4-carboxylates and their use as herbicides” (DOW AGROSCIENCES LLC, priority 2013, dated 2015)",
  "key": {"[1]": {"system": "Key Grass and Sedge Weeds as well as Grass Crops", "experiment": "Post-emergent Test II herbicidal activity (Table 6)", "assay_type": "in vivo", "conditions": "post-emergence, 336 h; for pest or weed control at 70 g/ha: application rate 70 g ai/ha; for pest or weed control at 140 g/ha: application rate 140 g ai/ha", "method_in_brief": "(§1)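 Percent injury, 0 (none) to 100 (complete kill), was judged visually 14 d after spraying young plants at the first or second true leaf stage with compound in an acetone/DMSO aqueous carrier at 187 L/ha. Plants were kept in a greenhouse at 23–29 °C by day.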"}, "[2]": {"system": "Key Broadleaf Weed and Crop Species", "experiment": "Post-emergent Test II herbicidal activity (Table 5)", "assay_type": "in vivo", "conditions": "post-emergence, 336 h, post-emergent, 14 days after application; for pest or weed control at 70 g/ha: 70 g ai/ha; for pest or weed control at 140 g/ha: 140 g ai/ha", "method_in_brief": "as §1"}, "[3]": {"conditions": "CYPES: yellow nutsedge (Cyperus esculentus), read-out: Visual Growth Reduction (%) 14 Days After Application, CYPES"}, "[4]": {"conditions": "DIGSA: crabgrass (Digitaria sanguinalis), read-out: Visual Growth Reduction (%) 14 Days After Application, DIGSA"}, "[5]": {"conditions": "ECHCG: barnyardgrass (Echinochloa crus-galli), read-out: Visual Growth Reduction (%) 14 Days After Application, ECHCG"}, "[6]": {"conditions": "ORYSA: rice (Oryza sativa), read-out: Visual Growth Reduction (%) 14 Days After Application, ORYSA"}, "[7]": {"conditions": "SETFA: giant foxtail (Setaria faberi), read-out: Visual Growth Reduction (%) 14 Days After Application, SETFA"}, "[8]": {"conditions": "SORVU: grain sorghum (Sorghum vulgare), read-out: Visual Growth Reduction (%) 14 Days After Application, SORVU"}, "[9]": {"conditions": "TRZSS (wheat, Triticum aestivum), read-out: Visual Growth Reduction (%) 14 Days After Application, TRZSS"}, "[10]": {"conditions": "ZEAMX: maize, corn (Zea mays), read-out: Visual Growth Reduction (%) 14 Days After Application, ZEAMX"}, "[11]": {"conditions": "ABUTH: velvetleaf (Abutilon theophrasti), read-out: Visual Growth Reduction (%) 14 Days After Application ABUTH"}, "[12]": {"conditions": "AMARE: redroot pigweed (Amaranthus retroflexus), read-out: Visual Growth Reduction (%) 14 Days After Application AMARE"}, "[13]": {"conditions": "BRSNN: oilseed-rape, canola (Brassica napus), read-out: Visual Growth Reduction (%) 14 Days After Application BRSNN"}, "[14]": {"conditions": "CHEAL: lambsquarters (Chenopodium album), read-out: Visual Growth Reduction (%) 14 Days After Application CHEAL"}, "[15]": {"conditions": "EPHHL: wild poinsettia (Euphorbia heterophylla), read-out: Visual Growth Reduction (%) 14 Days After Application EPHHL"}, "[16]": {"conditions": "HELAN: sunflower (Helianthus annuus), read-out: Visual Growth Reduction (%) 14 Days After Application HELAN"}, "[17]": {"conditions": "VIOTR: wild pansy (Viola tricolor), read-out: Visual Growth Reduction (%) 14 Days After Application VIOTR"}},
  "note": "Where two headings read alike, the source gives them in different places.",
  "data": [
    {"smiles": "C=Cc1c(N)nc(-c2ccc(I)cc2)nc1C(=O)O", "note": "[Compound 123, 6-Amino-2-(4-iodophenyl)-5-vinylpyrimidine-4-carboxylic acid]", "values": [
      {"measurement": "pest or weed control at 70 g/ha", "setting": "[1]; [3]", "value": "0 to 29", "unit": "%"},
      {"measurement": "pest or weed control at 140 g/ha", "setting": "[1]; [3]", "value": "45 to 59", "unit": "%"},
      {"measurement": "pest or weed control at 70 g/ha", "setting": "[1]; [4]", "value": "0 to 29", "unit": "%"},
      {"measurement": "pest or weed control at 140 g/ha", "setting": "[1]; [4]", "value": "0 to 29", "unit": "%"},
      {"measurement": "pest or weed control at 70 g/ha", "setting": "[1]; [5]", "value": "75 to 84", "unit": "%"},
      {"measurement": "pest or weed control at 140 g/ha", "setting": "[1]; [5]", "value": "85 to 94", "unit": "%"},
      {"measurement": "pest or weed control at 70 g/ha", "setting": "[1]; [6]", "value": "0 to 29", "unit": "%"},
      {"measurement": "pest or weed control at 140 g/ha", "setting": "[1]; [6]", "value": "0 to 29", "unit": "%"},
      {"measurement": "pest or weed control at 70 g/ha", "setting": "[1]; [7]", "value": "0 to 29", "unit": "%"},
      {"measurement": "pest or weed control at 140 g/ha", "setting": "[1]; [7]", "value": "0 to 29", "unit": "%"},
      {"measurement": "pest or weed control at 70 g/ha", "setting": "[1]; [8]", "value": "30 to 44", "unit": "%"},
      {"measurement": "pest or weed control at 140 g/ha", "setting": "[1]; [8]", "value": "30 to 44", "unit": "%"},
      {"measurement": "pest or weed control at 70 g/ha", "setting": "[1]; [9]", "value": "0 to 29", "unit": "%"},
      {"measurement": "pest or weed control at 140 g/ha", "setting": "[1]; [9]", "value": "0 to 29", "unit": "%"},
      {"measurement": "pest or weed control at 70 g/ha", "setting": "[1]; [10]", "value": "45 to 59", "unit": "%"},
      {"measurement": "pest or weed control at 140 g/ha", "setting": "[1]; [10]", "value": "60 to 74", "unit": "%"},
      {"measurement": "pest or weed control at 70 g/ha", "setting": "[2]; [11]", "value": "0 to 29", "unit": "%"},
      {"measurement": "pest or weed control at 140 g/ha", "setting": "[2]; [11]", "value": "0 to 29", "unit": "%"},
      {"measurement": "pest or weed control at 70 g/ha", "setting": "[2]; [12]", "value": "95 to 100", "unit": "%"},
      {"measurement": "pest or weed control at 140 g/ha", "setting": "[2]; [12]", "value": "95 to 100", "unit": "%"},
      {"measurement": "pest or weed control at 70 g/ha", "setting": "[2]; [13]", "value": "0 to 29", "unit": "%"},
      {"measurement": "pest or weed control at 140 g/ha", "setting": "[2]; [13]", "value": "60 to 74", "unit": "%"},
      {"measurement": "pest or weed control at 70 g/ha", "setting": "[2]; [14]", "value": "0 to 29", "unit": "%"},
      {"measurement": "pest or weed control at 140 g/ha", "setting": "[2]; [14]", "value": "0 to 29", "unit": "%"},
      {"measurement": "pest or weed control at 70 g/ha", "setting": "[2]; [15]", "value": "95 to 100", "unit": "%"},
      {"measurement": "pest or weed control at 140 g/ha", "setting": "[2]; [15]", "value": "95 to 100", "unit": "%"},
      {"measurement": "pest or weed control at 70 g/ha", "setting": "[2]; [16]", "value": "75 to 84", "unit": "%"},
      {"measurement": "pest or weed control at 140 g/ha", "setting": "[2]; [16]", "value": "75 to 84", "unit": "%"},
      {"measurement": "pest or weed control at 70 g/ha", "setting": "[2]; [17]", "value": "0 to 29", "unit": "%"},
      {"measurement": "pest or weed control at 140 g/ha", "setting": "[2]; [17]", "value": "45 to 59", "unit": "%"},
      {"measurement": "melting point", "value": "187 to 190", "unit": "°C"}
    ]}
  ]
}
